In PMC9293909 (Nature Communications, 2022):
Where “and” joins values, the source holds several entries; their conditions need not be identical. Equal entries are not always repeated. Where two headings read alike, the source gives them in different places.

Columns and labels:
hA1R = target: T1, hA1R (Homo sapiens, UniProt P30542); assay: Radioligand displacement of [3H]-DPCPX, CHO-K1-hA1R membranes; format: binding; design: expressed in transfected cells; [3H]DPCPX binding, agonist displacement (Fig. 1bii): unit not given here; details: for [3H]DPCPX binding, agonist displacement (Fig. 1bii): individual repeats and mean
T1 sequence (P30542 1-326): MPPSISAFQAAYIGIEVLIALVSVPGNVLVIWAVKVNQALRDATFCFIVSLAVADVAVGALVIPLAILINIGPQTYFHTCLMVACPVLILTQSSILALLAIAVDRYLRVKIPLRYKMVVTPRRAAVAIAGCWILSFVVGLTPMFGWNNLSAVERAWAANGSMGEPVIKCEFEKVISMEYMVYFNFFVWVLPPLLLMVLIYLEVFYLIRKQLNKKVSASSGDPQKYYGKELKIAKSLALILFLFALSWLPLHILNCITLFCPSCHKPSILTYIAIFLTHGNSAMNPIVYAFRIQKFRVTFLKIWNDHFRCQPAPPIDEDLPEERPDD
Protocol: Radioligand displacement assays were conducted using crude membrane preparations (100 μg protein per tube) acquired from homogenisation of CHO-K1-hA1R cells in ice-cold buffer (2 mM MgCl2, 20 mM HEPES, pH 7.4). […] Non-specific binding was determined in the presence of 10 μM DPCPX. Membrane incubations were conducted in Sterilin™ scintillation vials (Thermo Fisher Scientific; Wilmington, Massachusetts, USA) for 60 min at room temperature. Free radioligand was separated from bound radioligand by filtration through Whatman® glass microfiber GF/B 25 mm filters (Sigma-Aldrich). Each filter was then placed in a Sterilin™ scintillation vial and radioactivity determined by: addition of 4 mL of Ultima Gold XR liquid scintillant (PerkinElmer), overnight incubation at room temperature and the retained radioactivity determined using a Beckman Coulter LS 6500 Multi-purpose scintillation counter (Beckman Coulter Inc.; Indiana, USA).
Radioligand displacement curves were fitted to the one-site competition binding equation yielding log(Ki) values.

rA2AR = target: T2, rA2AR (Rattus norvegicus, UniProt P30543); assay: NanoBRET competition binding with CA200645
T2 construct: expressed in transfected cells
Protocol: The data was fitted with the ‘one-site – Ki model’ derived from the Cheng and Prusoff equation, built into Prism to determine affinity (pKi) values for all unlabelled agonists at all AR subtypes assayed. […] Here data was fitted with the ‘two-site Ki model’, build into Prism to determine high affinity and low affinity values for the unlabelled agonists. […] BRET was measured following the addition of the Nluc substrate, Furimazine (0.1 μM). Non-specific binding was determined using a high concentration of unlabelled antagonist, DPCPX for rA1R, ZM241385 for the rA2AR and MRS1220 for rA3R.

hA3R = target: T3, hA3R (Homo sapiens, UniProt P0DMS8); assay: Binding affinity at hA3R (Supplementary Table 1); details: tracer not given (footnote d); read-out: pKi hA3R (converted)
T3 construct: expressed in transfected cells; host or cells: CHO-K1
T3 sequence (P0DMS8 1-318): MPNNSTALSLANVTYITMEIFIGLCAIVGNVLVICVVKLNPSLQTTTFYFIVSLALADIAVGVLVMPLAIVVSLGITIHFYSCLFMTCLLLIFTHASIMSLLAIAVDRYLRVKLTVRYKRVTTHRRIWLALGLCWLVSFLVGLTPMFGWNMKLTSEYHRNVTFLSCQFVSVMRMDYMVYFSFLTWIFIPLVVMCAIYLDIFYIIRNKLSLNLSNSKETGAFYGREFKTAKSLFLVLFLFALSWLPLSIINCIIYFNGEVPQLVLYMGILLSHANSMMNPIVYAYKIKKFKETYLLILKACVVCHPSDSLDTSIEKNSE

[1] = tested on: postsynaptic A1Rs, CA1 pyramidal cells; assay: Whole-cell patch-clamp, membrane potential of CA1 pyramidal cells; format: cell-based, rat
Protocol: Rats were kept on a 12-hour light-dark cycle with slices made 90 min after entering the light cycle. […] The brain was removed, cut down the midline and the two sides of the brain stuck down to a metal base plate using cyanoacrylate glue. […] Slices were stored at 34 °C for 1–6 h in aCSF (1 mM MgCl2, 2 mM CaCl2) before use.
A slice was transferred to the recording chamber and perfused at 3 ml min^−1 with aCSF at 32 ± 0.5 °C. Slices were visualised using IR-DIC optics with an Olympus BX151W microscope (Scientifica) and a CCD camera (Hitachi). […] Voltage and current recordings were obtained using an Axon Multiclamp 700B amplifier (Molecular Devices, USA) and digitised at 20 KHz. Data acquisition and analysis was performed using pClamp 10 (Molecular Devices, USA). For voltage-clamp experiments, CA1 pyramidal cells were held at −60 mV. Peptides to interfere with G protein signalling were introduced via the patch pipette into the recorded cell.

hA1R:Goa = target: T4, hA1R:Goa (Homo sapiens, UniProt P30542); assay: cAMP inhibition in PTX-treated CHO-K1-hA1R cells with PTX-insensitive Goa (incl. Schild analysis, bias); format: cell-based; details: for Emax: inhibition of forskolin-stimulated cAMP; for Bias factor (Δ(τ/KA)) Goa: relative to adenosine, operational model
T4 construct: host or cells: CHO-K1-hA1R (made in-house), PTX-treated
T4 sequence (P30542 1-326): T1 sequence (P30542 1-326)
Protocol: Cells were then incubated for 24 h before addition of 100 ng/ml PTX, to inhibit activity of endogenous Gαi/o, and then incubated for a further 16-18 h. Transfected cells were then assayed as per cAMP inhibition experiments, but co-stimulated with agonist and 100 nM forskolin.
Statistical significance was tested as indicated in the text using paired or unpaired two-tailed t-tests or one-way or two-way ANOVAs with repeated measures (RM) as appropriate. Bonferroni corrections for multiple comparisons were performed. All in vitro cell signalling assay data was analysed using Prism 8.4 (Graphpad software, San Diego, CA), with all concentration-response curves being fitted using a 3 parameter logistic equation to calculate response range and IC50. All cAMP data was normalised to a forskolin concentration-response curve ran in parallel to each assay.

hA1R:Gob = hA1R:Gob (Homo sapiens, UniProt P30542); assay: cAMP inhibition in PTX-treated CHO-K1-hA1R cells with PTX-insensitive Gob; details: for cAMP accumulation, PTX-insensitive Gob (Fig. 2b): forskolin co-stimulation, individual repeats and mean; for Emax: read-out: Emax Gob; for Bias factor (Δ(τ/KA)) Gob: relative to adenosine, operational model
hA1R:Gob, sequence (P09471 2-354 isoform P09471-2 C351I partner limits assumed, one chain of several): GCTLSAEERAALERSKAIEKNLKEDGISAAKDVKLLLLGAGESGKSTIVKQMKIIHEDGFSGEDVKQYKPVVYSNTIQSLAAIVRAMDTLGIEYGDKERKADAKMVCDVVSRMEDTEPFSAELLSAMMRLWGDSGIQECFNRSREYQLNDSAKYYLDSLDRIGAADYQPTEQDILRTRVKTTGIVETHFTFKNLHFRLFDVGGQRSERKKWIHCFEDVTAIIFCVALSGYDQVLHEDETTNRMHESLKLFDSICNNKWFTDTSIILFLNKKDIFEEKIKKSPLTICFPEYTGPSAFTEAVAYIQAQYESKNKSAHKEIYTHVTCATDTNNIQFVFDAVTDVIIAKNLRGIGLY

T2 sequence (P30543 whole entry): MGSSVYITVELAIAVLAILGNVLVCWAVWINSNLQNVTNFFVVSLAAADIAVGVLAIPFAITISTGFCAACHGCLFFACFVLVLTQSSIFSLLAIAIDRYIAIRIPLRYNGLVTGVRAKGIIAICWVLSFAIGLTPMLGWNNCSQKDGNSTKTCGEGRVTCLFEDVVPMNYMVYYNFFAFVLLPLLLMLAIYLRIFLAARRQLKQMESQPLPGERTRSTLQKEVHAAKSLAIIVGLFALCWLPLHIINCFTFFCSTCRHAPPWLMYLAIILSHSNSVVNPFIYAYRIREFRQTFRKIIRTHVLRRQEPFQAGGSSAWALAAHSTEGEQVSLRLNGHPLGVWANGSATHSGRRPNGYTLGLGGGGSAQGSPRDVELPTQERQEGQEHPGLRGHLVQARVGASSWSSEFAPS

With `OC[C@H]1O[C@@H](n2cnc3c(NC4CCCC4)ncnc32)[C@H](O)[C@@H]1O` [CPA, N^6-Cyclopentyladenosine] the “[3H]DPCPX binding, agonist displacement (Fig. 1bii)” value (“[3H]DPCPX binding” below) (hA1R; Log [Agonist] -4 (printed 100 nM), individual repeat) was 20.2642 and 4.4733 and -15.7273 and -5.192 and 4.0456, the “[3H]DPCPX binding” value (hA1R; Log [Agonist] -4 (printed 100 nM), mean) was 1.6 and the “[3H]DPCPX binding” value (hA1R; Log [Agonist] -5 (10 nM [sic]), individual repeat) was 11.1387 and 7.285 and -0.8835 and -5.9519 and 7.949. For the same molecule, the “[3H]DPCPX binding” value (hA1R; Log [Agonist] -5 (10 nM [sic]), mean) was 3.9, the “[3H]DPCPX binding” value (hA1R; Log [Agonist] -6) was 33.4844 and 35.0135 and 37.1916 and 34.6828 and 36.5376 and the “[3H]DPCPX binding” value (hA1R; Log [Agonist] -6, mean) was 35.4. The “[3H]DPCPX binding” value (hA1R; Log [Agonist] -7 (0.1 nM [sic])) was 68.5034 and 65.597 and 37.2069 and 75.7359 and 85.6552, the “[3H]DPCPX binding” value (hA1R; Log [Agonist] -7 (0.1 nM [sic]), mean) was 66.5 and the “[3H]DPCPX binding” value (hA1R; Log [Agonist] -8 (0.01 nM [sic])) was 82.5188 and 76.3158 and 97.3862 and 99.1923 and 79.3577. The “[3H]DPCPX binding” value (hA1R; Log [Agonist] -8 (0.01 nM [sic]), mean) was 87.0, the “[3H]DPCPX binding” value (hA1R; Log [Agonist] -9 (0.001 nM [sic])) was 135.427 and 110.895 and 123.979 and 110.925 and 95.1958 and the “[3H]DPCPX binding” value (hA1R; Log [Agonist] -9 (0.001 nM [sic]), mean) was 115.3. For the same molecule, the Ki (rA2AR) was > 100 µM, the Ki (hA3R) was > 100 µM and the membrane hyperpolarisation ([1]; CPA 300 nM in the presence of BnOCPA 300 nM) was 2.75 ± 0.48 mV. For the same molecule, the Emax (hA1R:Goa) was -13.7%, the “Bias factor (Δ(τ/KA)) Goa” value (hA1R:Goa) was 0.6126 and the “cAMP accumulation, PTX-insensitive Gob (Fig. 2b)” value (from here on “cAMP accumulation”) (hA1R:Gob; Log[Agonist] -6) was -30.7 and -34.041 and -25.068 and -30.1931 and -28.2815 and -42.9468 and -23.6463. For the same molecule, the “cAMP accumulation” value (hA1R:Gob; Log[Agonist] -6.5) was -29.1 and -23.2817 and -30.2927 and -27.2185 and -29.2939 and -35.2937 and -29.3947, the “cAMP accumulation” value (hA1R:Gob; Log[Agonist] -7) was -11.3 and -6.131 and -4.497 and -15.3895 and -20.4135 and -9.305 and the “cAMP accumulation” value (hA1R:Gob; Log[Agonist] -7.5) was -3.4 and 0.1928 and -6.183 and -4.138 and -8.294 and -3.294. The “cAMP accumulation” value (hA1R:Gob; Log[Agonist] -8) was 0.0 and 0 (6×), the “cAMP accumulation” value (hA1R:Gob; Log[Agonist] -8.5) was 0.0 and 0 (6×) and the “cAMP accumulation” value (hA1R:Gob; Log[Agonist] -9) was 0 (6×) and 0.0. For the same molecule, the “cAMP accumulation” value (hA1R:Gob; Log[Agonist] -10) was 0 (6×) and 0.0, the Emax (hA1R:Gob) was -31.8% and the “Bias factor (Δ(τ/KA)) Gob” value (hA1R:Gob) was 2.263.
Work on `OC[C@H]1O[C@@H](n2cnc3c(N[C@@H]4CCC[C@H]4O)ncnc32)[C@H](O)[C@@H]1O` [HOCPA, (2 R,3 R,4 S,5 R)−2-(6-{[(1 R,2 R)−2-hydroxycyclopentyl]amino}−9H-purin-9-yl)−5-(hydroxymethyl)oxolane-3,4-diol] yielded a Ki (hA1R; displacement of [3H]-DPCPX, CHO-K1-hA1R, read-out: pKi hA1R (converted)) of 1.55 µM, a Ki (rA2AR; displacement of CA200645, read-out: pKi rA2AR (converted)) of 13.8 µM and a Ki (hA3R) of 0.589 µM. It also gave a membrane hyperpolarisation ([1]; HOCPA 300 nM) of 5.3 ± 0.5 mV, an EC50 (hA1R:Goa) of 0.339 µM and an Emax (hA1R:Goa) of -29.8%. The “Bias factor (Δ(τ/KA)) Goa” value (hA1R:Goa) was 3.228, the EC50 (hA1R:Gob) was 0.603 µM and the Emax (hA1R:Gob) was -35.5%. For the same molecule, the “Bias factor (Δ(τ/KA)) Gob” value (hA1R:Gob) was 11.4176.
